Target: T1, PI3Kα H1047R (T47D cells) (Homo sapiens, UniProt P42336, H1047R)
T1 construct: endogenous in cells; host or cells: T47D cells
Assay: PI3Kα cellular assay: pAKT HTRF in T47D cells after EGF stimulation
Assay type: cell-based
Settings: for IC50: T47D cells (PI3Kα H1047R), pAKT S473 HTRF
How it was run: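 T47D cells (PIK3CA H1047R) serum-starved 16 h, then treated 1 h at 37 °C with compound (10,000 nM top, 3-fold steps to 0.5 nM). After 10 min stimulation with 20 ng/mL EGF, cells were lysed and pAKT measured by HTRF.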

[1] = selectivity of T47D (H1047R) over SKBR3 (WT) pAKT IC50
[2] = 1 hr compound, 20 ng/ml EGF 10 min
[3] = selectivity T47D (H1047R) over SKBR3 (WT), pAKT HTRF

T1 sequence (P42336 whole entry H1047R): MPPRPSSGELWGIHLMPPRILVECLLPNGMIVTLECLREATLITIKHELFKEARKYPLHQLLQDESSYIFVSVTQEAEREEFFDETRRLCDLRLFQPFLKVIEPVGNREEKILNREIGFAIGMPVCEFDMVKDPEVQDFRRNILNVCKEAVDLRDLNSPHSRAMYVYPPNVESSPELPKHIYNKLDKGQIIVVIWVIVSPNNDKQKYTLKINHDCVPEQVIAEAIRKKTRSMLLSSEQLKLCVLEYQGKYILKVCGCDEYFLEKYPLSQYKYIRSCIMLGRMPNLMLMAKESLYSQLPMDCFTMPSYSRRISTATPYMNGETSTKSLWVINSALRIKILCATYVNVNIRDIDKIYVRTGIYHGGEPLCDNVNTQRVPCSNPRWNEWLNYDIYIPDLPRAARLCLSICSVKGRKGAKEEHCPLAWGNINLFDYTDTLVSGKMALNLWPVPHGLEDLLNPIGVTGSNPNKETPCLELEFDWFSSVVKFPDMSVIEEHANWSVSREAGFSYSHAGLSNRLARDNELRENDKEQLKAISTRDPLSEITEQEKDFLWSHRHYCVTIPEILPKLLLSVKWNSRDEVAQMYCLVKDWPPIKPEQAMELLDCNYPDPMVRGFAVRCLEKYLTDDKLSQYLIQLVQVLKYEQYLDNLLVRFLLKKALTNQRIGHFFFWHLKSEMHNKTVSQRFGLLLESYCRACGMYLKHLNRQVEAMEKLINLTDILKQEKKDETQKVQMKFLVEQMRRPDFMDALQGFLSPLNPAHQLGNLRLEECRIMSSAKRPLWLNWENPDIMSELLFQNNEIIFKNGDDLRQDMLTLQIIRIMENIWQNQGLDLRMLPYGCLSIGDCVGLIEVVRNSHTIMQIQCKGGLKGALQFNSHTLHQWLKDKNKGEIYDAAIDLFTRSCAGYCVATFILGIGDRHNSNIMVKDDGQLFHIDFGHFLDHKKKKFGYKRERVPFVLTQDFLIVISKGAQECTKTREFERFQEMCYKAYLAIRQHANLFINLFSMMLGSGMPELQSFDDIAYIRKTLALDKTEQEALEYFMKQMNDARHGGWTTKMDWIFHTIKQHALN
T1 sequence (P27986 whole entry partner): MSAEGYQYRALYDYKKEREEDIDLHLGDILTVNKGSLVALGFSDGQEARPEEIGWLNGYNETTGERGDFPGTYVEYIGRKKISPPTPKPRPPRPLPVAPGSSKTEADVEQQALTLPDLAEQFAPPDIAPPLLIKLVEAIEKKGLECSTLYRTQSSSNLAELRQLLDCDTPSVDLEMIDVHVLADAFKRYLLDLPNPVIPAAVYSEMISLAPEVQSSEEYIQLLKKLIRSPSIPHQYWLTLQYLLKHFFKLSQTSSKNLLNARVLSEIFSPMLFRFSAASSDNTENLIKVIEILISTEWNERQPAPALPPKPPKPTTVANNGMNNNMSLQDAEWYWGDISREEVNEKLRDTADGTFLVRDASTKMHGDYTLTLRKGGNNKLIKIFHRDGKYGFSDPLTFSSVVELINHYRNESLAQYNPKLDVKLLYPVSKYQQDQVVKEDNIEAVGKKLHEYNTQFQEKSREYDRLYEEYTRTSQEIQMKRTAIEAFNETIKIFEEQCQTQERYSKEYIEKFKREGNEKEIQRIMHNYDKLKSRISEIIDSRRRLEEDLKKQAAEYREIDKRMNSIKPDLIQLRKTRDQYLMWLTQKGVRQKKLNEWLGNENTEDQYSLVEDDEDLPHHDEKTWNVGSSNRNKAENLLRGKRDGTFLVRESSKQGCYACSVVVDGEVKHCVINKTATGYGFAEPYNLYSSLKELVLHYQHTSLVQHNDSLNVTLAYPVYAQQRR

| Compound | IC50 (EGF stimulation) [nM] | T47D pAKT S473 HTRF IC50 (H1047R): T47D (H1047R) selectivity over SKBR3 (WT) [1] | IC50 [2] [nM] | T47D pAKT S473 HTRF IC50 (H1047R): T47D (H1047R) selectivity over SKBR3 (WT) [3] |
| --- | --- | --- | --- | --- |
| Cc1cc([C@H](C)Nc2ccccc2C(=O)O)c2nc(-c3cc4c(N)nn(C)c4cc3C)cc(=O)n2c1 [Compound 705] | > 2000 | C (C denotes ≤5-fold) | – | – |
| Cc1cc([C@H](C)Nc2ccccc2C(=O)O)c2nc(-c3ccc4[nH]c(=O)[nH]c4c3)cc(=O)n2c1 [Compound 500] | – | – | > 2000 | C (C denotes ≤5-fold) |
| CC#Cc1nc2c(C(C)Nc3ccccc3C(=O)O)cc(C)cn2c(=O)c1C (stereo not shown) [Compound 1185] | 500 to 2000 | – | – | B (B denotes 20-fold≥value>5-fold) |
| Cc1cc(C(C)Nc2ccccc2C(=O)O)c2nc(-c3ccc(C(=O)N(C)C)cc3)cc(=O)n2c1 (stereo not shown) [Compound 657] | – | B (B denotes 20-fold≥value>5-fold) | – | – |
| Cc1cc([C@@H](C)Nc2ccccc2)c2nc(-c3ccc(F)cc3)c(C)c(=O)n2c1 [Compound 1123] | > 2000 | – | – | C (C denotes ≤5-fold) |
| Cc1cc([C@@H](C)Nc2ccccc2C(=O)O)c2nc(N3CCCCC3)cc(=O)n2c1 [Compound 7] | – | – | 100 to 500 | A (A denotes >20-fold) |
| Cc1cc(C(C)Nc2ccc(F)cc2C(=O)O)c2nc(-c3cccc(F)c3)c(C)c(=O)n2c1 (stereo not shown) [Compound 1238] | < 100 | – | – | A (A denotes >20-fold) |
| Cc1cc([C@H](C)Nc2ccccc2C(=O)O)c2nc(N3C[C@@H]4CC(F)(F)C[C@@H]4C3)cc(=O)n2c1 (single isomer, unassigned) [Compound 583] | – | – | < 100 | A (A denotes >20-fold) |
| Cc1cc(C(C)Nc2ccccc2C#N)c2nc(N3CCOCC3)cc(=O)n2c1 (stereo not shown) [Compound 321] | – | – | > 2000 | C (C denotes ≤5-fold) |
| Cc1cc([C@@H](C)Nc2ccccc2C(=O)O)c2nc(-c3ccc(C(=O)N(C)C)cc3)cc(=O)n2c1 [Compound 658] | 100 to 500 | A (A denotes >20-fold) | – | – |
| C=CC(=O)Nc1ccc(C(=O)O)c(N[C@@H](C)c2cc(C)cn3c(=O)c(C)c(N4Cc5ccccc5C4)nc23)c1 [Compound 1122] | > 2000 | – | – | C (C denotes ≤5-fold) |
| Cc1cc([C@H](C)Nc2ccccc2S(N)(=O)=O)c2nc(N3C[C@@H](C)O[C@@H](C)C3)cc(=O)n2c1 [Compound 731] | > 2000 | C (C denotes ≤5-fold) | – | – |
| Cc1cc([C@@H](C)N[C@@H]2CCCC[C@@H]2C(=O)O)c2nc(N3CCOCC3)cc(=O)n2c1 [Compound 905] | > 2000 | C (C denotes ≤5-fold) | – | – |
| Cc1cc([C@@H](C)Nc2ccccc2C(=O)O)c2nc(N3CC[Si](C)(C)CC3)cc(=O)n2c1 [Compound 446] | – | – | > 2000 | C (C denotes ≤5-fold) |
| Cc1cc([C@@H](C)Nc2ccccc2C(=O)O)c2nc(OC3CCOCC3)c(C)c(=O)n2c1 (single isomer, unassigned) [Compound 1370] | > 2000 | – | – | C (C denotes ≤5-fold) |
| Cc1cc(C(C)Nc2ccccc2C(=O)O)c2nc(Nc3ccc4[nH]c(=O)oc4c3)cc(=O)n2c1 (stereo not shown) [Compound 548] | – | – | > 2000 | C (C denotes ≤5-fold) |
| Cc1cc([C@@H](C)Nc2ccccc2C(=O)O)c2nc(N3C[C@H](C)C[C@H](C(F)F)C3)cc(=O)n2c1 [Compound 868] | 500 to 2000 | B (B denotes 20-fold≥value>5-fold) | – | – |
| Cc1cc([C@@H](C)Nc2ccccc2S(N)(=O)=O)c2nc(-c3ccc4c(c3)c(C)cn4C3CC3)c(C)c(=O)n2c1 [Compound 995] | > 2000 | C (C denotes ≤5-fold) | – | – |
| Cc1cc(C(C)Nc2ccccc2C(=O)O)c2nc(N3CCC(NS(C)(=O)=O)CC3)cc(=O)n2c1 (stereo not shown) [Compound 434] | – | – | – | C (C denotes ≤5-fold) |
| Cc1cc([C@H](C)Nc2ccccc2C(=O)O)c2nc(-c3ccc(C#CC4(C)CCC4)c(F)c3)c(C)c(=O)n2c1 [Compound 1267] | – | – | – | C (C denotes ≤5-fold) |
| Cc1cc([C@H](C)Nc2ccccc2C)c2nc(N3CCOCC3)cc(=O)n2c1 [Compound 249] | – | – | 500 to 2000 | C (C denotes ≤5-fold) |
| Cc1cc(C(C)Nc2cccc3c2OCC(=O)N3)c2nc(N3CCOCC3)cc(=O)n2c1 (stereo not shown) [Compound 684] | > 2000 | C (C denotes ≤5-fold) | – | – |
| Cc1cc(C(C)Nc2ccccc2C(=O)O)c2nc(N3CCC(C)(O)CC3)cc(=O)n2c1 (stereo not shown) [Compound 473] | – | – | > 2000 | C (C denotes ≤5-fold) |
